Reference: PubChem BioAssay (NCI)
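96-well plates; 48 h exposure; 5 concentrations. Endpoints by linear interpolation between flanking doses. Not reached: highest tested concentration assigned. TGI: concentration producing complete growth inhibition.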

Tests used:
Test in all cases: DTP human tumour cell line panel, 48 h
[1] = test system: PC-3 prostate
[2] = test system: KM12 colon
[3] = test system: SNB-19 CNS
[4] = test system: NCI-H23 lung
[5] = test system: K-562 leukemia
[6] = test system: 786-0 renal
[7] = test system: NCI-H522 lung
[8] = test system: UACC-62 melanoma
[9] = test system: SNB-75 CNS
[10] = test system: HCT-15 colon
[11] = test system: BT-549 breast
[12] = test system: HOP-62 NSCLC
[13] = test system: MCF7 breast
[14] = test system: OVCAR-4 ovarian
[15] = test system: NCI-H460 lung
[16] = test system: TK-10 renal
[17] = test system: SK-MEL-28 melanoma
[18] = test system: SK-MEL-5 melanoma
[19] = test system: COLO 205 colon
[20] = test system: U251 CNS
[21] = test system: MDA-N
[22] = test system: SW-620 colon
[23] = test system: IGROV1 ovarian
[24] = test system: SK-MEL-2 melanoma
[25] = test system: HS 578T breast
[26] = test system: HOP-92 NSCLC
[27] = test system: SF-295 CNS
[28] = test system: SF-268 CNS
[29] = test system: UACC-257 melanoma
[30] = test system: OVCAR-8 ovarian
[31] = test system: MDA-MB-435
[32] = test system: HCT-116 colon
[33] = test system: RXF 393 renal
[34] = test system: CAKI-1 renal
[35] = test system: RPMI-8226 leukemia
[36] = test system: A498 renal
[37] = test system: OVCAR-5 ovarian
[38] = test system: MOLT-4 leukemia
[39] = test system: ACHN renal
[40] = test system: M14 melanoma
[41] = test system: NCI/ADR-RES ovarian
[42] = test system: HT29 colon
[43] = test system: HCC-2998 colon
[44] = test system: SK-OV-3 ovarian
[45] = test system: MALME-3M melanoma
[46] = test system: EKVX NSCLC
[47] = test system: DU-145 prostate
[48] = test system: UO-31 renal
[49] = test system: OVCAR-3 ovarian
[50] = test system: T-47D breast
[51] = test system: A549 NSCLC
[52] = test system: MDA-MB-231 breast
[53] = test system: CCRF-CEM leukemia
[54] = test system: SR leukemia
[55] = test system: SN12C renal
[56] = test system: HL-60(TB) leukemia
[57] = test system: LOX IMVI melanoma

`CCON1CC(C(=O)OC)=C(O)C1=O` was tested. Which TGI [1] did it give?
The TGI was > 100 µM.

And the TGI [2]?
Its TGI is > 100 µM.

What about the TGI [3] of the same compound?
The TGI was > 100 µM.

And the TGI [4]?
Its TGI is > 100 µM.

What about the TGI [5] of the same compound?
Its TGI is > 100 µM.

What about the TGI [6] of the same compound?
Its TGI is > 100 µM.

What about the TGI [7] of the same compound?
Its TGI is > 100 µM.

What about the TGI [8] of the same compound?
Its TGI is > 100 µM.

What about the TGI [9] of the same compound?
The TGI was > 100 µM.

What about the TGI [10] of the same compound?
Its TGI is > 100 µM.

And the TGI [11]?
Its TGI is > 100 µM.

What about the TGI [12] of the same compound?
The TGI was > 100 µM.

What about the TGI [13] of the same compound?
Its TGI is > 100 µM.

What about the TGI [14] of the same compound?
The TGI was > 100 µM.

And the TGI [15]?
The TGI was > 100 µM.

And the TGI [16]?
Its TGI is > 100 µM.

And the TGI [17]?
The TGI was > 100 µM.

What about the TGI [18] of the same compound?
The TGI was > 100 µM.

And the TGI [19]?
The TGI was > 100 µM.

What about the TGI [20] of the same compound?
Its TGI is > 100 µM.

What about the TGI [21] of the same compound?
The TGI was > 100 µM.

What about the TGI [22] of the same compound?
Its TGI is > 100 µM.

What about the TGI [23] of the same compound?
Its TGI is > 100 µM.

What about the TGI [24] of the same compound?
The TGI was > 100 µM.

And the TGI [25]?
Its TGI is > 100 µM.

What about the TGI [26] of the same compound?
Its TGI is > 100 µM.

What about the TGI [27] of the same compound?
The TGI was > 100 µM.

What about the TGI [28] of the same compound?
The TGI was > 100 µM.

What about the TGI [29] of the same compound?
The TGI was > 100 µM.

And the TGI [30]?
Its TGI is > 100 µM.

What about the TGI [31] of the same compound?
The TGI was > 100 µM.

And the TGI [32]?
The TGI was > 100 µM.

And the TGI [33]?
The TGI was > 100 µM.

What about the TGI [34] of the same compound?
Its TGI is > 100 µM.

What about the TGI [35] of the same compound?
Its TGI is > 100 µM.

What about the TGI [36] of the same compound?
The TGI was > 100 µM.

What about the TGI [37] of the same compound?
Its TGI is > 100 µM.

And the TGI [38]?
The TGI was > 100 µM.

What about the TGI [39] of the same compound?
Its TGI is > 100 µM.

What about the TGI [40] of the same compound?
Its TGI is > 100 µM.

And the TGI [41]?
The TGI was > 100 µM.

What about the TGI [42] of the same compound?
The TGI was > 100 µM.

And the TGI [43]?
The TGI was > 100 µM.

And the TGI [44]?
The TGI was > 100 µM.

What about the TGI [45] of the same compound?
The TGI was > 100 µM.

And the TGI [46]?
Its TGI is > 100 µM.

What about the TGI [47] of the same compound?
Its TGI is > 100 µM.

What about the TGI [48] of the same compound?
Its TGI is > 100 µM.

What about the TGI [49] of the same compound?
Its TGI is > 100 µM.

And the TGI [50]?
The TGI was > 100 µM.

And the TGI [51]?
Its TGI is > 100 µM.

And the TGI [52]?
Its TGI is > 100 µM.

For `CN1CCN(c2cc3nsnc3c3nsnc23)CC1`, which TGI [1] is on record?
The TGI was > 10 µM.

And the TGI [2]?
The TGI was > 10 µM.

And the TGI [53]?
The TGI was > 10 µM.

What about the TGI [54] of the same compound?
Its TGI is > 10 µM.

And the TGI [4]?
Its TGI is > 10 µM.

What about the TGI [5] of the same compound?
Its TGI is > 10 µM.

What about the TGI [6] of the same compound?
Its TGI is > 10 µM.

And the TGI [8]?
The TGI was > 10 µM.

And the TGI [9]?
The TGI was > 10 µM.

And the TGI [10]?
Its TGI is > 10 µM.

What about the TGI [12] of the same compound?
Its TGI is > 10 µM.

And the TGI [55]?
The TGI was > 10 µM.

What about the TGI [13] of the same compound?
The TGI was > 10 µM.

And the TGI [16]?
Its TGI is > 10 µM.

What about the TGI [17] of the same compound?
The TGI was > 10 µM.

And the TGI [18]?
Its TGI is > 10 µM.

What about the TGI [19] of the same compound?
The TGI was > 10 µM.

What about the TGI [21] of the same compound?
Its TGI is > 10 µM.

And the TGI [22]?
Its TGI is > 10 µM.

And the TGI [23]?
The TGI was > 10 µM.

What about the TGI [27] of the same compound?
The TGI was > 10 µM.

What about the TGI [28] of the same compound?
Its TGI is > 10 µM.

What about the TGI [29] of the same compound?
Its TGI is > 10 µM.

And the TGI [30]?
The TGI was > 10 µM.

And the TGI [56]?
Its TGI is > 10 µM.

And the TGI [33]?
Its TGI is > 10 µM.

And the TGI [34]?
The TGI was > 10 µM.

And the TGI [35]?
Its TGI is > 10 µM.

And the TGI [38]?
Its TGI is > 10 µM.

What about the TGI [40] of the same compound?
The TGI was > 10 µM.

What about the TGI [42] of the same compound?
The TGI was > 10 µM.

And the TGI [43]?
Its TGI is > 10 µM.

And the TGI [44]?
Its TGI is > 10 µM.

What about the TGI [45] of the same compound?
Its TGI is > 10 µM.

And the TGI [46]?
Its TGI is > 10 µM.

What about the TGI [47] of the same compound?
Its TGI is > 10 µM.

And the TGI [57]?
Its TGI is > 10 µM.

What about the TGI [50] of the same compound?
Its TGI is > 10 µM.

What about the TGI [51] of the same compound?
The TGI was > 10 µM.

And the TGI [52]?
Its TGI is > 10 µM.
